Laboratory results as given in PubChem BioAssay AID248 (DTP/NCI, 2004).
Where “and” joins values, the source holds several entries; their conditions need not be identical. Equal values may be shown once. Toxic doses and inconclusive results are not listed.

System: L1210 leukemia ip in BDF1 mice, survival T/C
Assay: NCI In Vivo Anticancer Drug Screen. Data for tumor model L1210 Leukemia (intraperitoneal) in B6D2F1 (BDF1) mice
Settings: higher = longer survival
How it was run: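 Survival endpoint. Drug-treated group vs vehicle group, expressed as T divided by C. Tumor passaged by transplantation.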

[1] = endpoint: mean survival time, dose: 100.0 mg/kg/injection, schedule: Q01DX001 (ip), vehicle: saline
[2] = endpoint: mean survival time, dose: 200.0 mg/kg/injection, schedule: Q01DX001 (ip), vehicle: saline
[3] = endpoint: mean survival time, dose: 400.0 mg/kg/injection, schedule: Q01DX001 (ip), vehicle: saline

With `[CeH3]` the T/C (endpoint: mean survival time, dose: 100.0 mg/kg/injection, schedule: Q04DX003 (sc), vehicle: olive oil, sesame oil, peanut oil) was 98 % of control, the T/C (endpoint: mean survival time, dose: 200.0 mg/kg/injection, schedule: Q04DX003 (sc), vehicle: olive oil, sesame oil, peanut oil) was 108 % of control and the T/C (endpoint: mean survival time, dose: 400.0 mg/kg/injection, schedule: Q04DX003 (sc), vehicle: olive oil, sesame oil, peanut oil) was 91 % of control.
`Cc1c2c(ccc3ccccc32)cc2cccc[n+]12` was tested, and the T/C (endpoint: mean survival time, dose: 2.0 mg/kg/injection, schedule: Q01DX Z (ip), vehicle: saline) was 101 % of control and the T/C (endpoint: mean survival time, dose: 4.0 mg/kg/injection, schedule: Q01DX Z (ip), vehicle: saline) was 116 % of control.
With `Cc1nnnn1C1CCCCC1I` (centres undefined) the T/C (endpoint: mean survival time, dose: 10.0 mg/kg/injection, schedule: Q01DX001 (ip), vehicle: other) was 102 % of control and the T/C (endpoint: mean survival time, dose: 20.0 mg/kg/injection, schedule: Q01DX001 (ip), vehicle: other) was 88 % of control.
With `Cc1nc(N)[nH]c(=O)c1Br` the T/C (endpoint: mean survival time, dose: 100.0 mg/kg/injection, schedule: Q01DX009 (ip), vehicle: Klucel (hydroxypropylcellulose) (HPC)) was 97 % of control, the T/C (endpoint: mean survival time, dose: 100.0 mg/kg/injection, schedule: Q04DX003 (ip), vehicle: Klucel (hydroxypropylcellulose) (HPC)) was 93 % of control and the T/C (endpoint: mean survival time, dose: 200.0 mg/kg/injection, schedule: Q01DX009 (ip), vehicle: Klucel (hydroxypropylcellulose) (HPC)) was 100 % of control. For the same compound, the T/C (endpoint: mean survival time, dose: 200.0 mg/kg/injection, schedule: Q04DX003 (ip), vehicle: Klucel (hydroxypropylcellulose) (HPC)) was 98 % of control and the T/C (endpoint: mean survival time, dose: 400.0 mg/kg/injection, schedule: Q04DX003 (ip), vehicle: Klucel (hydroxypropylcellulose) (HPC)) was 98 % of control.
`O=C1OC(c2cccc(Cl)c2)=N/C1=C\c1cccc([N+](=O)[O-])c1` was tested, and the T/C (endpoint: mean survival time, dose: 100.0 mg/kg/injection, schedule: Q04DX002 (ip), vehicle: Klucel (hydroxypropylcellulose) (HPC)) was 103 % of control, the T/C (endpoint: mean survival time, dose: 200.0 mg/kg/injection, schedule: Q04DX002 (ip), vehicle: Klucel (hydroxypropylcellulose) (HPC)) was 100 % of control and the T/C (endpoint: mean survival time, dose: 400.0 mg/kg/injection, schedule: Q04DX002 (ip), vehicle: Klucel (hydroxypropylcellulose) (HPC)) was 103 % of control.
In the case of `O=C(CC(=O)c1ccco1)c1ccco1`, the T/C [1] is reported as 100 % of control, the T/C [2] is reported as 102 % of control and the T/C [3] is reported as 96 % of control.
In the case of `NCCc1ccc(O)c(O)c1`, the T/C (endpoint: mean survival time, dose: 6.25 mg/kg/injection, schedule: Q03HX024 (ip), vehicle: saline) is reported as 101 % of control, the T/C (endpoint: mean survival time, dose: 12.5 mg/kg/injection, schedule: Q03HX004 (ip), vehicle: saline) is reported as 113 % of control and the T/C (endpoint: mean survival time, dose: 12.5 mg/kg/injection, schedule: Q03HX024 (ip), vehicle: saline) is reported as 87 % of control. For the same compound, the T/C (endpoint: mean survival time, dose: 25.0 mg/kg/injection, schedule: Q01DX001 (ip), vehicle: saline) was 104 % of control, the T/C (endpoint: mean survival time, dose: 25.0 mg/kg/injection, schedule: Q01DX009 (ip), vehicle: Klucel (hydroxypropylcellulose) (HPC)) was 105 % of control and the T/C (endpoint: mean survival time, dose: 25.0 mg/kg/injection, schedule: Q03HX004 (ip), vehicle: saline) was 113 % of control. The T/C (endpoint: mean survival time, dose: 25.0 mg/kg/injection, schedule: Q03HX024 (ip), vehicle: saline) was 106 % of control, the T/C (endpoint: mean survival time, dose: 25.0 mg/kg/injection, schedule: Q04DX003 (ip), vehicle: saline) was 94 % of control and the T/C (endpoint: mean survival time, dose: 50.0 mg/kg/injection, schedule: Q01DX001 (ip), vehicle: saline) was 100 % of control. For the same compound, the T/C (endpoint: mean survival time, dose: 50.0 mg/kg/injection, schedule: Q01DX009 (ip), vehicle: Klucel (hydroxypropylcellulose) (HPC)) was 114 % of control, the T/C (endpoint: mean survival time, dose: 50.0 mg/kg/injection, schedule: Q01DX009 (ip), vehicle: saline) was 118 % of control and 119 % of control and the T/C (endpoint: mean survival time, dose: 50.0 mg/kg/injection, schedule: Q03HX004 (ip), vehicle: saline) was 124 % of control. For the same compound, the T/C (endpoint: mean survival time, dose: 50.0 mg/kg/injection, schedule: Q03HX024 (ip), vehicle: saline) was 115 % of control, the T/C (endpoint: mean survival time, dose: 50.0 mg/kg/injection, schedule: Q04DX003 (ip), vehicle: saline) was 94 % of control and the T/C [1] was 108 % of control. For the same compound, the T/C (endpoint: mean survival time, dose: 100.0 mg/kg/injection, schedule: Q03HX024 (ip), vehicle: saline) was 115 % of control, the T/C (endpoint: mean survival time, dose: 100.0 mg/kg/injection, schedule: Q04DX003 (ip), vehicle: saline) was 97 % of control and the T/C (endpoint: mean survival time, dose: 150.0 mg/kg/injection, schedule: Q01DX009 (ip), vehicle: saline) was 104 % of control. For the same compound, the T/C [2] was 99 % of control, the T/C (endpoint: mean survival time, dose: 200.0 mg/kg/injection, schedule: Q04DX003 (ip), vehicle: saline) was 101 % of control and the T/C [3] was 115 % of control. The T/C (endpoint: mean survival time, dose: 400.0 mg/kg/injection, schedule: Q01DX009 (ip), vehicle: Klucel (hydroxypropylcellulose) (HPC)) was 152 % of control, the T/C (endpoint: mean survival time, dose: 400.0 mg/kg/injection, schedule: Q01DX009 (ip), vehicle: saline) was 123 % of control and the T/C (endpoint: mean survival time, dose: 400.0 mg/kg/injection, schedule: Q04DX003 (ip), vehicle: saline) was 94 % of control. The T/C (endpoint: mean survival time, dose: 600.0 mg/kg/injection, schedule: Q01DX009 (ip), vehicle: saline) was 103 % of control, the T/C (endpoint: mean survival time, dose: 800.0 mg/kg/injection, schedule: Q01DX009 (ip), vehicle: saline) was 122 % of control and the T/C (endpoint: mean survival time, dose: 800.0 mg/kg/injection, schedule: Q04HX003 (ip), vehicle: saline) was 108 % of control. The T/C (endpoint: mean survival time, dose: 1600.0 mg/kg/injection, schedule: Q04HX003 (ip), vehicle: saline) was 104 % of control, the T/C (endpoint: median survival time, dose: 20.0 mg/kg/injection, schedule: Q04HX036 (ip), vehicle: saline) was 92 % of control and the T/C (endpoint: median survival time, dose: 40.0 mg/kg/injection, schedule: Q01DX009 (sc), vehicle: saline) was 98 % of control. For the same compound, the T/C (endpoint: median survival time, dose: 40.0 mg/kg/injection, schedule: Q04HX020 (ip), vehicle: saline) was 114 % of control, the T/C (endpoint: median survival time, dose: 40.0 mg/kg/injection, schedule: Q04HX036 (ip), vehicle: saline) was 106 % of control and the T/C (endpoint: median survival time, dose: 40.0 mg/kg/injection, schedule: Q11DX017 (ip), vehicle: saline) was 104 % of control. For the same compound, the T/C (endpoint: median survival time, dose: 40.0 mg/kg/injection, schedule: Q12HX018 (ip), vehicle: saline) was 114 % of control, the T/C (endpoint: median survival time, dose: 80.0 mg/kg/injection, schedule: Q01DX009 (ip), vehicle: saline) was 118 % of control and the T/C (endpoint: median survival time, dose: 80.0 mg/kg/injection, schedule: Q01DX009 (oral), vehicle: saline) was 97 % of control. For the same compound, the T/C (endpoint: median survival time, dose: 80.0 mg/kg/injection, schedule: Q01DX009 (sc), vehicle: saline) was 104 % of control, the T/C (endpoint: median survival time, dose: 80.0 mg/kg/injection, schedule: Q02DX005 (ip), vehicle: saline) was 111 % of control and the T/C (endpoint: median survival time, dose: 80.0 mg/kg/injection, schedule: Q04HX020 (ip), vehicle: saline) was 123 % of control. For the same compound, the T/C (endpoint: median survival time, dose: 80.0 mg/kg/injection, schedule: Q04HX036 (ip), vehicle: saline) was 122 % of control, the T/C (endpoint: median survival time, dose: 80.0 mg/kg/injection, schedule: Q11DX017 (ip), vehicle: saline) was 120 % of control and the T/C (endpoint: median survival time, dose: 80.0 mg/kg/injection, schedule: Q12HX010 (ip), vehicle: saline) was 121 % of control. The T/C (endpoint: median survival time, dose: 160.0 mg/kg/injection, schedule: Q01DX009 (oral), vehicle: saline) was 104 % of control, the T/C (endpoint: median survival time, dose: 160.0 mg/kg/injection, schedule: Q01DX009 (sc), vehicle: saline) was 96 % of control and the T/C (endpoint: median survival time, dose: 160.0 mg/kg/injection, schedule: Q04HX036 (ip), vehicle: saline) was 108 % of control. For the same compound, the T/C (endpoint: median survival time, dose: 320.0 mg/kg/injection, schedule: Q01DX009 (oral), vehicle: saline) was 105 % of control, the T/C (endpoint: median survival time, dose: 320.0 mg/kg/injection, schedule: Q01DX009 (sc), vehicle: saline) was 103 % of control and the T/C (endpoint: median survival time, dose: 320.0 mg/kg/injection, schedule: Q02DX005 (ip), vehicle: saline) was 122 % of control. The T/C (endpoint: median survival time, dose: 640.0 mg/kg/injection, schedule: Q01DX009 (oral), vehicle: saline) was 106 % of control, the T/C (endpoint: median survival time, dose: 640.0 mg/kg/injection, schedule: Q01DX009 (sc), vehicle: saline) was 103 % of control and the T/C (endpoint: median survival time, dose: 640.0 mg/kg/injection, schedule: Q02DX005 (ip), vehicle: saline) was 124 % of control.
